Source: patent publication EP2638113B1, “THIOPHENE AZO DYES AND LAUNDRY CARE COMPOSITIONS CONTAINING THE SAME” (Milliken & Company, priority 2010, dated 2011)

Assay: Aqueous partition value of a dye (water/1-octanol partitioning, absorbance at λmax)
Assay type: physicochemical
Conditions: Aqueous Partition Value (APV) = (Af/Ai) × 100%, deionized water / 1-octanol, 10.0 mL each
Protocol: • I. Method for Determining the Aqueous Partition Value of a Dye Dissolve in deionized water to a final volume of 10.0 mL an amount of dye sufficient to provide a solution absorbance value between 0.25 and 1.0, said absorbance being determined at the dye λmax between 400 nm and 750 nm, using a cuvette with 1.0 cm path length. Measure the absorbance of the sample at the dye λmax in a UV/Vis spectrophotometer, then transfer the entire 10.0 mL solution to a 50.0 mL plastic centrifuge tube. Add 10.0 mL of 1-octanol, cap the tube, and mix vigorously for 30 seconds using a Vortex™ mixer. Leave the tube standing undisturbed until the layers cleanly phase separate. […] Analyze the solution as before, and quantify the absorbance loss at λmax as "% of Dye Remaining in Aqueous Layer" as detailed below: % of Dye Remaining in Aqueous Layer = Aqueous Partition Value (APV) = (Af/Ai) × 100% [formula] wherein Ai is the initial solution absorbance at λmax and Af is the final solution absorbance at λmax. • II. […] After such washing step separately rinse the swatches in tap water and air dry the swatches in the dark. • e.) After rinsing and drying each swatch, the hueing efficiency, DE*eff, of the dye is assessed by determining the L*, a*, and b* value measurements of each swatch using a Hunter LabScan XE reflectance spectrophotometer with D65 illumination, 10° observer and UV filter excluded. […]

| SMILES | % Dye in Water Layer |
| --- | --- |
| CCN(CCOCCOCCOCCOCC[N+](C)(C)CCCS(=O)(=O)[O-])c1ccc(/N=N/c2sc(C#N)c(C)c2C#N)c(C)c1 [Example 15] | 3% |
| CCN(CCOCCOCCOCCOCCn1cc[n+](C)c1)c1ccc(/N=N/c2sc(C#N)c(C)c2C#N)c(C)c1 [Example 13] | 20% |
